The values below come from ChEMBL document CHEMBL1141027, “HY251, a novel cell cycle inhibitor isolated from Aralia continentalis, induces G1 phase arrest via p53-dependent pathway in HeLa cells” (2009).

Each structure is given as a SMILES string. Activity calls are given as the source filed them. The rule behind the calls is not given here.

In test [1] the target is Cyclin-dependent kinase 4 (Homo sapiens) (UniProt P11802). The test is described as follows: Inhibition of CDK4 in human HeLa cells by immunoprecipitation kinase assay. The test is classed as cell-based.
Sequence of Cyclin-dependent kinase 4 (Homo sapiens) (P11802 whole entry): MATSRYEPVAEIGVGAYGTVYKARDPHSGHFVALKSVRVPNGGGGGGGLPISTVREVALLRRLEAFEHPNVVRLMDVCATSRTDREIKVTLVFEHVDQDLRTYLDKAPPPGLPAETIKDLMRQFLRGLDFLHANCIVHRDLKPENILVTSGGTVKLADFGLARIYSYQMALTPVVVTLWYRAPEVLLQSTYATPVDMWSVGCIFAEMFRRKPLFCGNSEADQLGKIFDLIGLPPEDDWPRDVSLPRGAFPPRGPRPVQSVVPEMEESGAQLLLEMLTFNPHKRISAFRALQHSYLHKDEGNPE
The test system of test [2] is HeLa. The test is described as follows: Cell cycle arrest in human HeLa cells assessed as accumulation at G1 phase at 50 ng/ml after 12 hrs by flow cytometry. The test is classed as functional. In general terms: A flow cytometer gives signals particle by particle.
The target of test [3] is Cellular tumor antigen p53 (Homo sapiens) (UniProt P04637). The test is described as follows: Increase in p53-Ser15 phosphorylation in human HeLa cells at 100 uM by Western blotting. The test is classed as cell-based. (A western blot detects proteins with antibodies after separation by electrophoresis.)
Sequence of Cellular tumor antigen p53 (Homo sapiens) (P04637 whole entry, looked up): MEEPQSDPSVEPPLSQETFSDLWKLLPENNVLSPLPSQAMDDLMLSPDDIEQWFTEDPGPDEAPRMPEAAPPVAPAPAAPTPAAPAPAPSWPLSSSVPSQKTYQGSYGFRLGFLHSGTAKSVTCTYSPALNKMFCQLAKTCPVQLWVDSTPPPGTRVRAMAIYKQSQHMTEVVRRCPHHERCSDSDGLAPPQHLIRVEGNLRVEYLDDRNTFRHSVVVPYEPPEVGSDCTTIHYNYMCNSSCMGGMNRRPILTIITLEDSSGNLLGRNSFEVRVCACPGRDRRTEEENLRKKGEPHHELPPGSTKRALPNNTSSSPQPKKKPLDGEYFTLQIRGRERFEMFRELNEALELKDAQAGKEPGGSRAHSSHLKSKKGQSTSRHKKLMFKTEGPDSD
Test [4] relates to HeLa. The test is described as follows: Cell cycle arrest in human HeLa cells assessed as accumulation at G1 phase at 100 uM treated 12 hrs after nocodazole challenge measured after 24 hrs by flow cytometry. The test is classed as functional.
Test [5] deals with HeLa. The test is described as follows: Cell cycle arrest in human HeLa cells assessed as accumulation at G2/M phase at 100 uM treated 12 hrs after nocodazole challenge measured after 24 hrs by flow cytometry. In kind it is functional.
The subject of test [6] is HeLa. The test is described as follows: Cell cycle arrest in human HeLa cells assessed as accumulation at G2/M phase at 100 uM treated 12 hrs after nocodazole challenge measured after 12 hrs by flow cytometry. In kind it is functional.
In test [7] the test system is HeLa. The test is described as follows: Cell cycle arrest in human HeLa cells assessed as accumulation at G2/M phase at 50 ng/ml after 12 hrs by flow cytometry. In kind it is functional.
Test [8] concerns the target Glycogen synthase kinase-3 beta (Homo sapiens) (UniProt P49841). Kind of test: Inhibition of GSK3-beta in human HeLa cells by immunoprecipitation kinase assay. The test is classed as cell-based.
Test [9] deals with HeLa. Kind of test: Decrease in cyclin D3 expression in human HeLa cells at 100 uM by Western blotting. The test is classed as functional, cell-based. As to conditions: TDE = time-dependent effect.
Test [10] relates to HeLa. The test is described as follows: Increase in p21CIP1 level in human HeLa cells at 100 uM by Western blotting. In kind it is functional, cell-based. As to conditions: TDE = time-dependent effect.
Test [11] addresses Cyclin-dependent kinase 2 (Homo sapiens) (UniProt P24941). The test is described as follows: Inhibition of CDK2 in human HeLa cells by immunoprecipitation kinase assay. The test is classed as cell-based.
Test [12] has as its system HeLa. Kind of test: Cell cycle arrest in human HeLa cells assessed as accumulation at G1 phase at 100 uM treated 12 hrs after nocodazole challenge measured after 6 hrs by flow cytometry. In kind it is functional.
Test [13] concerns HeLa. The test is described as follows: Increase in ataxia telangiectasia mutated gene expression in human HeLa cells after 12 hrs by RT-PCR relative to control. In kind it is functional.
Test [14] relates to HeLa. The test is described as follows: Increase in p27KIP1 level in human HeLa cells at 100 uM by Western blotting. As to conditions: TDE = time-dependent effect. The test is classed as functional, cell-based.
Test [15] has as its system HeLa. Kind of test: Cell cycle arrest in human HeLa cells assessed as accumulation at G1 phase at 100 uM treated 12 hrs after nocodazole challenge measured after 12 hrs by flow cytometry. In kind it is functional.
In test [16] the test system is HeLa. Kind of test: Increase in ataxia telangiectasia mutated gene expression in human HeLa cells after 24 hrs by RT-PCR relative to control. The test is classed as functional.
Test [17] relates to HeLa. The test is described as follows: Cell cycle arrest in human HeLa cells assessed as accumulation at G2/M phase at 100 uM treated 12 hrs after nocodazole challenge measured after 6 hrs by flow cytometry. In kind it is functional.
The subject of test [18] is HeLa. The test is described as follows: Increase in hypophosphorylated pRb level in human HeLa cells at 100 uM by Western blotting. In kind it is functional, cell-based. As to conditions: TDE = time-dependent effect.
Test [19] has as its system HeLa. The test is described as follows: Cell cycle arrest in human HeLa cells assessed as accumulation at G1 phase at 100 uM treated 12 hrs after nocodazole challenge by flow cytometry. The test is classed as functional, cell-based. As to conditions: TDE = time-dependent effect.

Sequence of Glycogen synthase kinase-3 beta (Homo sapiens) (P49841 whole entry, looked up): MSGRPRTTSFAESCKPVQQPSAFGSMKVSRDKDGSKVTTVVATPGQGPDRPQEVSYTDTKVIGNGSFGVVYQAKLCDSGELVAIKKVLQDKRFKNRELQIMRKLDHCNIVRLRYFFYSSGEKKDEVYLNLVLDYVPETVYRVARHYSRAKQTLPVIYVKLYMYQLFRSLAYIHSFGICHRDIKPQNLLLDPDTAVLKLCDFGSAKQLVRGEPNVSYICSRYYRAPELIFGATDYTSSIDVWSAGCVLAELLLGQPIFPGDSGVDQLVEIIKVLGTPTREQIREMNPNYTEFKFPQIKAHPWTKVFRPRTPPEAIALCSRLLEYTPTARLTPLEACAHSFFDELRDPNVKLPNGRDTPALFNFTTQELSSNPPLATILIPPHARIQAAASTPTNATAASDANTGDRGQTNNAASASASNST

Take `C=CC1CC2(O)CC3(O)CCC=CC3C2(O)C1(O)CCC` (centres undefined): the result in [1], in [8] and in [11] was inactive. Besides, the Activity is 4% in the test with HeLa [2]; 52% in the test on HeLa [4]; 11% in the test on HeLa [5]; 21% in the test on HeLa [6]; 68% in the test on HeLa [7]; “tde” in the test on HeLa [9]. In addition, the Activity entry was “tde” in the test with HeLa [10]; 35% with HeLa [12]; “tde” in the test with HeLa [14]; 48% in the test with HeLa [15]; 37% in the test with HeLa [17]; “tde” in the test with HeLa [18]. Moreover, the Activity result with HeLa [19] is “tde”. The outcome in test [3] was Active. Moreover, the “fold change (FC)” value in the test on HeLa [13] stood at 3.1; in the test with HeLa [16] it was 3.8.
